Holding throughout (type): in vivo
In experiment [1] the test system is Echinochloa crus-galli (ECHCG). The experiment can be described thus: Glasshouse assay for herbicidal activity, pre-/post-emergence (percentage phytotoxicity). The following applies: Echinochloa crus-galli, Rate 250 g/ha, 100%=total damage, 0%=no damage. The method, then: (§1) Seeds of a variety of monocotyledonous and dicotyledonous test plants are sown in standard soil in pots. The plants are cultivated for one day (for pre-emergence) or for about 12 days (for post-emergence) under controlled conditions in a glasshouse (warm climate species at 24/18° C., cool climate species at 20/16° C., both at day/night; 16 hours light; 65% humidity). The test plants are then grown on, in a glasshouse (greenhouse) under controlled conditions (warm climate species at 24/18° C., cool climate species at 20/16° C., both at day/night; 16 hours light; 65% humidity) and are watered twice daily. 15 days after application of the test herbicide (15DAA) (for post-emergence), and 20 days after application of the test herbicide (20DAA) (for pre-emergence), the test plants are evaluated visually, and an assessed percentage phytotoxicity score is given for each herbicidal application on each plant species (with 100%=total damage to plant; 0%=no damage to plant). The plant species tested are as follows: Alopecurus myosuroides (ALOMY), Avena fatua (AVEFA), Lolium perenne (LOLPE), Echinochloa crus-galli (ECHCG).

In experiment [2] the test system is Alopecurus myosuroides (ALOMY). The experiment is described as above. The following applies: Rate 250 g/ha, 100%=total damage, 0%=no damage; for pest or weed control at 250 g/ha: Alopecurus myosuroides. How it is done: as §1
Experiment [3] concerns Avena fatua (AVEFA). Described as above. The following applies: Rate 250 g/ha, 100%=total damage, 0%=no damage; for pest or weed control at 250 g/ha: Avena fatua. The method, then: as §1
Experiment [4] has as its system Lolium perenne (LOLPE). Described as above. The following applies: Rate 250 g/ha, 100%=total damage, 0%=no damage; for pest or weed control at 250 g/ha: Lolium perenne. How it is done: as §1
Experiment [5] deals with wheat. Nature of the experiment: Post-emergence herbicidal activity against cereal crops (wheat) +/- safener, crop selectivity. The following applies: 100%=total damage to plant, 0%=no damage; for Post-emergence herbicidal activity against wheat (percentage phytotoxicity), +CQC: 250 g/ha, plus safener cloquintocet-mexyl (CQC) applied at 50 g/ha; for percent phytotoxicity (crop damage) to wheat at 250 g/ha: Triticum aestivum, 360 h, without safener, read-out: Post-emergence herbicidal activity against wheat (percentage phytotoxicity), Wheat - CQC. How it is done: as §1, with “plant).” for “plant). The plant species tested are as follows: Alopecurus myosuroides (ALOMY), Avena fatua (AVEFA), Lolium perenne (LOLPE), Echinochloa crus-galli (ECHCG).”

Where [6] appears, read: post-emergence, 360 h, post-emergence, visual assessment 15 DAA, read-out: Post-emergence herbicidal activity (percentage phytotoxicity), ECHCG POST.
The mark [7] stands for this setting: pre-emergence, 480 h, pre-emergence, visual assessment 20 DAA, read-out: Pre-emergence herbicidal activity (percentage phytotoxicity), ECHCG PRE.
The mark [8] stands for this setting: 360 h, post-emergence, visual assessment 15 DAA, read-out: Post-emergence herbicidal activity (percentage phytotoxicity), ALOMY POST.
Setting [9] is: 480 h, pre-emergence, visual assessment 20 DAA, read-out: Pre-emergence herbicidal activity (percentage phytotoxicity), ALOMY PRE.
Where [10] appears, read: post-emergence, 360 h, post-emergence, visual assessment 15 DAA, read-out: Post-emergence herbicidal activity (percentage phytotoxicity), AVEFA POST.
[11] abbreviates: pre-emergence, 480 h, pre-emergence, visual assessment 20 DAA, read-out: Pre-emergence herbicidal activity (percentage phytotoxicity), AVEFA PRE.
Where [12] appears, read: post-emergence, 360 h, post-emergence, visual assessment 15 DAA, read-out: Post-emergence herbicidal activity (percentage phytotoxicity), LOLPE POST.
Where [13] appears, read: pre-emergence, 480 h, pre-emergence, visual assessment 20 DAA, read-out: Pre-emergence herbicidal activity (percentage phytotoxicity), LOLPE PRE.
The mark [14] stands for this setting: post-emergence, visual assessment 15 DAA.
[15] abbreviates: pre-emergence, visual assessment 20 DAA.

Like-named read-outs stand apart in the source and are kept apart here.

Take `Cc1cc(C)c(C2C(=O)CC(CCNC(=O)NC(=O)c3ccc(OC(F)(F)F)cc3)C2=O)c(C)c1` (centres unmarked) [Compound A71]: the pest or weed control at 250 g/ha in experiment [1] (setting [6]) was found to be 80%; in experiment [1] (setting [7]), 0%; in experiment [2] (setting [8]) it was 20%; in experiment [2] (setting [9]) it was 30%; in experiment [3] (setting [10]), 50%; in experiment [3] (setting [11]) it was 20%. The pest or weed control at 250 g/ha came out at 80% in experiment [4] (setting [12]) and 40% in experiment [4] (setting [13]). In experiment [5], the “Post-emergence herbicidal activity against wheat (percentage phytotoxicity), +CQC” value is 20%. Further, the percent phytotoxicity (crop damage) to wheat at 250 g/ha in experiment [5] is 80%.

For `CC#Cc1cc(C)c(C2C(=O)CC(CCNC(=O)NC(C)(C)C)C2=O)c(C)c1` (centres unmarked) [Compound A23], the pest or weed control at 250 g/ha in experiment [1] (setting [6]) worked out at 100%; in experiment [1] (setting [7]), 100%; in experiment [2] (setting [8]), 90%; in experiment [2] (setting [9]) it was 100%; in experiment [3] (setting [10]), 100%; in experiment [3] (setting [11]), 100%. The pest or weed control at 250 g/ha in experiment [4] (setting [12]) amounted to 90%; in experiment [4] (setting [13]), 100%. The “Post-emergence herbicidal activity against wheat (percentage phytotoxicity), +CQC” value in experiment [5] was found to be 80%. Moreover, the percent phytotoxicity (crop damage) to wheat at 250 g/ha in experiment [5] is 90%.

As for `Cc1cc(C)c(C2C(=O)CC(CCNC(=O)NC(=O)c3cc(F)c(Cl)cc3Cl)C2=O)c(C)c1` (centres unmarked) [Compound A65], the pest or weed control at 250 g/ha in experiment [1] (setting [6]) was determined as 80%; in experiment [1] (setting [7]) it was 70%; in experiment [2] (setting [8]), 100%; in experiment [2] (setting [9]), 80%; in experiment [3] (setting [10]) it was 90%; in experiment [3] (setting [11]), 70%. The pest or weed control at 250 g/ha amounted to 100% in experiment [4] (setting [12]) and 80% in experiment [4] (setting [13]). Besides, the “Post-emergence herbicidal activity against wheat (percentage phytotoxicity), +CQC” value in experiment [5] was 40%. The percent phytotoxicity (crop damage) to wheat at 250 g/ha in experiment [5] was 80%.

With `Cc1cc(C)c(C2C(=O)CC(CCNS(=O)(=O)c3ccccc3Cl)C2=O)c(C)c1` (centres unmarked) [Compound A80], the pest or weed control at 250 g/ha in experiment [1] (setting [6]) was 0%; in experiment [1] (setting [7]) it was 40%; in experiment [2] (setting [8]), 10%; in experiment [2] (setting [9]), 10%; in experiment [3] (setting [10]), 0%; in experiment [3] (setting [11]), 0%. Further, the pest or weed control at 250 g/ha in experiment [4] (setting [12]) and in experiment [4] (setting [13]) was 60% throughout. For the same compound, in experiment [5], the “Post-emergence herbicidal activity against wheat (percentage phytotoxicity), +CQC” value was found to be 0%. For the same compound, the percent phytotoxicity (crop damage) to wheat at 250 g/ha in experiment [5] was 0%.

Turning to `Cc1cc(C)c(C2C(=O)CC(CCNC(=O)N(C)C(C)(C)C)C2=O)c(C)c1` (centres unmarked) [Compound A14], the pest or weed control at 250 g/ha in experiment [1] (setting [6]) worked out at 100%; in experiment [1] (setting [7]), 100%; in experiment [2] (setting [8]) it was 80%; in experiment [2] (setting [9]), 90%; in experiment [3] (setting [10]), 90%; in experiment [3] (setting [11]) it was 90%. The pest or weed control at 250 g/ha in experiment [4] (setting [12]) and in experiment [4] (setting [13]) was 100% throughout. The “Post-emergence herbicidal activity against wheat (percentage phytotoxicity), +CQC” value in experiment [5] was 30%. In addition, the percent phytotoxicity (crop damage) to wheat at 250 g/ha in experiment [5] is 60%.

With `Cc1cc(C)c(C2C(=O)CC(CCN(C)C(=O)Nc3ccccn3)C2=O)c(C)c1` (centres unmarked) [Compound A17], in experiment [2] (setting [14]), the “Post-emergence herbicidal activity (percentage phytotoxicity), ALOMY POST” value came to 70%. In addition, in experiment [3] (setting [15]), the “Pre-emergence herbicidal activity (percentage phytotoxicity), AVEFA PRE” value was found to be 0%. Moreover, the “Post-emergence herbicidal activity (percentage phytotoxicity), LOLPE POST” value in experiment [4] (setting [14]) stood at 40%. The “Pre-emergence herbicidal activity (percentage phytotoxicity), LOLPE PRE” value in experiment [4] (setting [15]) is listed as 30%. In experiment [5], the “Post-emergence herbicidal activity against wheat (percentage phytotoxicity), +CQC” value is 10% and the percent phytotoxicity (crop damage) to wheat at 250 g/ha is 50%.

With `Cc1cc(OCC(F)(F)F)cc(C)c1C1C(=O)CC(CCNC(=O)C2=NOC(C)(C)C2)C1=O` (centres unmarked) [Compound A115], the pest or weed control at 250 g/ha in experiment [1] (setting [6]) was 100%; in experiment [1] (setting [7]) it was 70%; in experiment [2] (setting [8]), 100%; in experiment [2] (setting [9]) it was 100%; in experiment [3] (setting [10]), 100%; in experiment [3] (setting [11]), 80%. The pest or weed control at 250 g/ha in experiment [4] (setting [12]) and in experiment [4] (setting [13]) was 90% in each case.

For the compound `CC#Cc1cc(C)c(C2C(=O)CC(CCNC(=O)Nc3ccccn3)C2=O)c(C)c1` (centres unmarked) [Compound A92], the pest or weed control at 250 g/ha in experiment [1] (setting [6]) stood at 100%; in experiment [1] (setting [7]), 80%; in experiment [2] (setting [8]), 90%; in experiment [2] (setting [9]), 70%; in experiment [3] (setting [10]) it was 100%; in experiment [3] (setting [11]) it was 30%. In addition, the values for the pest or weed control at 250 g/ha in experiment [4] (setting [12]) and in experiment [4] (setting [13]) were 100% and 70%, respectively.

For the compound `Cc1cc(-c2ncc(C#N)cn2)cc(C)c1C1C(=O)CC(CCNC(=O)C2=NOC(C)(C)C2)C1=O` (centres unmarked) [Compound A114], the pest or weed control at 250 g/ha amounted to 100% in experiment [1] (setting [6]); 70% in experiment [1] (setting [7]); 90% in experiment [2] (setting [8]); 90% in experiment [2] (setting [9]); 100% in experiment [3] (setting [10]); 80% in experiment [3] (setting [11]). The values for the pest or weed control at 250 g/ha in experiment [4] (setting [12]) and in experiment [4] (setting [13]) were 100% and 70%, respectively.

In the case of `Cc1cc(-c2ncc(Cl)cc2F)cc(C)c1C1C(=O)CC(CCNC(=O)C2=NOC(C)(C)C2)C1=O` (centres unmarked) [Compound A117], the pest or weed control at 250 g/ha in experiment [1] (setting [6]) was determined as 100%; in experiment [1] (setting [7]), 80%; in experiment [2] (setting [8]) it was 100%; in experiment [2] (setting [9]) it was 90%; in experiment [3] (setting [10]) it was 100%; in experiment [3] (setting [11]), 80%. Also, the figures for the pest or weed control at 250 g/ha in experiment [4] (setting [12]) and in experiment [4] (setting [13]) were 100% and 80%, respectively.

Turning to `Cc1cc(C)c(C2C(=O)CC(CCNc3ncc(Br)cn3)C2=O)c(C)c1` (centres unmarked) [Compound A126, 4-[2-[(5-bromopyrimidin-2-yl)amino]ethyl]-2-(2,4,6-trimethylphenyl)cyclopentane-1,3-dione], the pest or weed control at 250 g/ha in experiment [1] (setting [6]) was 90%; in experiment [1] (setting [7]), 80%; in experiment [2] (setting [8]) it was 90%; in experiment [2] (setting [9]), 80%; in experiment [3] (setting [10]), 90%; in experiment [3] (setting [11]) it was 100%. In addition, the pest or weed control at 250 g/ha in experiment [4] (setting [12]) and in experiment [4] (setting [13]) was 90% each time.

As to `Cc1cc(-c2ncc(Br)cn2)cc(C)c1C1C(=O)CC(CCNC(=O)C2=NOC(C)(C)C2)C1=O` (centres unmarked) [Compound A116], the pest or weed control at 250 g/ha in experiment [1] (setting [6]) worked out at 100%; in experiment [1] (setting [7]) it was 90%; in experiment [2] (setting [8]) it was 100%; in experiment [2] (setting [9]) it was 90%; in experiment [3] (setting [10]), 100%; in experiment [3] (setting [11]) it was 90%. The pest or weed control at 250 g/ha in experiment [4] (setting [12]) was found to be 100%; in experiment [4] (setting [13]), 90%.

The values above are taken from patent publication US10301295B2, “Herbicidal compounds” (Syngenta Participations AG, priority 2014, dated 2019).
